# According to article PMC8237267 (Journal of Medicinal Chemistry, 2021):
# Key:
# HDAC1 = molecular target: T1, HDAC1 (Homo sapiens, UniProt Q13547); assay: HDAC EMSA activity assay (Nanosyn); type: biochemical
# T1 construct: The full-length human HDACs were recombinantly expressed and purified from SF9 insect cells; host or cells: SF9 insect cells
# Experimental: (§1) The full-length human HDACs were recombinantly expressed and purified from SF9 insect cells. All compounds were serially prediluted in DMSO from a top concentration of 10 or 1 μM and introduced into the 384-well plates through an acoustic dispenser (Labcyte550) into the reaction buffer (100 mM HEPES, pH 7.5, 25 mM KCl, 0.1% BSA, 0.01% Triton X-100, and enzyme). The total concentration of DMSO was 1% in all wells. The deacetylation reaction was initiated by introduction of a FAM-labeled acetylated peptide substrate. The reaction was monitored through the change in the relative fluorescence intensity of the substrate and product peaks. The activity was determined as the product sum ratio (PSR): P/(S + P), where P = product peak height and S = substrate peak height. […] Inhibition curves (Pinh vs inhibitor concentration) were fitted by a four-parameter sigmoid dose–response model using XLfit software (IDBS) to determine the IC50 values.
# HDAC5 = molecular target: T2, HDAC5 (Homo sapiens, UniProt Q9UQL6); assay: HDAC EMSA activity assay (Nanosyn); type: biochemical
# T2 construct: The full-length human HDACs were recombinantly expressed and purified from SF9 insect cells; host or cells: SF9 insect cells
# T2 sequence (Q9UQL6 whole entry): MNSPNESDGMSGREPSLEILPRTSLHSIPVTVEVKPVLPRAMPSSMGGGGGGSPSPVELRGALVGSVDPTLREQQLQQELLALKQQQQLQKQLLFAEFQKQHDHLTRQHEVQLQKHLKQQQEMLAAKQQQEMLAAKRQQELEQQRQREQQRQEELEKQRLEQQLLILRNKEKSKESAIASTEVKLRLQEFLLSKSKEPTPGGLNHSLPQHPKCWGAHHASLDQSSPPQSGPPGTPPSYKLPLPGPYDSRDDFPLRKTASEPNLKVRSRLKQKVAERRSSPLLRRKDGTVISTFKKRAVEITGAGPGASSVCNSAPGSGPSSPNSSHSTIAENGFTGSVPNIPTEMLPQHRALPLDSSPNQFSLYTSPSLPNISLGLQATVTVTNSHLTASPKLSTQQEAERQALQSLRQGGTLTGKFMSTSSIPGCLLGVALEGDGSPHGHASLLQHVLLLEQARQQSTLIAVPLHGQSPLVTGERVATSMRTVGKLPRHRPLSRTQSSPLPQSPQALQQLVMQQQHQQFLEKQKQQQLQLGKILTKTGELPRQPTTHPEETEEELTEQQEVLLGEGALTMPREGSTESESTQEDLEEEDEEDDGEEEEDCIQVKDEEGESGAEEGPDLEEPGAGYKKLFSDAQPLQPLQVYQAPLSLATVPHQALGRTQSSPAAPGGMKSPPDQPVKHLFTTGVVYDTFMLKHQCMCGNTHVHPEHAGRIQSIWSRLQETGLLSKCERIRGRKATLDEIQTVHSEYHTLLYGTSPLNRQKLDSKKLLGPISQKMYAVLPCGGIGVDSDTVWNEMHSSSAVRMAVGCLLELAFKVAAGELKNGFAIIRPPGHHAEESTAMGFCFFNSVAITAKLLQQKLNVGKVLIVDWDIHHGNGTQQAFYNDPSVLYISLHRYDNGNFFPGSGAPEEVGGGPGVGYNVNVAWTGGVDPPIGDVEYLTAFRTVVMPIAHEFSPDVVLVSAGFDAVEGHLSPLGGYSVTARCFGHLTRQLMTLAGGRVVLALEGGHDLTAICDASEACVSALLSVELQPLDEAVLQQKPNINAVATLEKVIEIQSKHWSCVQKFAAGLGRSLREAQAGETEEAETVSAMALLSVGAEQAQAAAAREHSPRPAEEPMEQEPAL
# Experimental: as §1
# HDAC7 = molecular target: T3, HDAC7 (Homo sapiens, UniProt Q8WUI4); assay: HDAC EMSA activity assay (Nanosyn); type: biochemical
# T3 construct: The full-length human HDACs were recombinantly expressed and purified from SF9 insect cells; host or cells: SF9 insect cells
# T3 sequence (Q8WUI4 whole entry): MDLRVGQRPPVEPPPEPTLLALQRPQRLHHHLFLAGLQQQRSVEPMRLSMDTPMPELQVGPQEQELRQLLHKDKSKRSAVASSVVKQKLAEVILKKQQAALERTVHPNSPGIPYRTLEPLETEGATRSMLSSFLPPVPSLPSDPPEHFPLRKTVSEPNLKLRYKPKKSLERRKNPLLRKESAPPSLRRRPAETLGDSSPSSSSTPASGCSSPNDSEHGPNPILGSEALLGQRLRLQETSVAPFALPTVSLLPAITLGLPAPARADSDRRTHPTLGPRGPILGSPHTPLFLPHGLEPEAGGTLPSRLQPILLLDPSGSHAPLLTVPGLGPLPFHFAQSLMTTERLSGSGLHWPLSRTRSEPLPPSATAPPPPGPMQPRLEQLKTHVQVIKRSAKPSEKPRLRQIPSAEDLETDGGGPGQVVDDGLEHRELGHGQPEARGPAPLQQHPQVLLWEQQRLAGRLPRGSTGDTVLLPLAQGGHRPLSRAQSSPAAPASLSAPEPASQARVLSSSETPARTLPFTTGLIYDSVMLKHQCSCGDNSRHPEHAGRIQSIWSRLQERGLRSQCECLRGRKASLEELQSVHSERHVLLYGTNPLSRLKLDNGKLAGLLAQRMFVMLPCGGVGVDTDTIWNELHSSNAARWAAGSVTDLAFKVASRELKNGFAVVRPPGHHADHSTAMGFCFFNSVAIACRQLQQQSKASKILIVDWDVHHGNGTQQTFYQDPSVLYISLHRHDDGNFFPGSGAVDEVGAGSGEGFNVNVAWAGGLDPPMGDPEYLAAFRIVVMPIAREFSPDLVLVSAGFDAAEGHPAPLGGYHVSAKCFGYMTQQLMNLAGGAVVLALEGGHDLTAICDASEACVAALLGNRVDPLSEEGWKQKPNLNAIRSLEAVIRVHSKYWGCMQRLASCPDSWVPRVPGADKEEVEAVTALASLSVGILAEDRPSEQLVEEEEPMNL
# Experimental: as §1
# HDAC9 = molecular target: T4, HDAC9 (Homo sapiens, UniProt Q9UKV0); assay: HDAC EMSA activity assay (Nanosyn); type: biochemical
# T4 construct: The full-length human HDACs were recombinantly expressed and purified from SF9 insect cells; host or cells: SF9 insect cells
# T4 sequence (Q9UKV0 whole entry): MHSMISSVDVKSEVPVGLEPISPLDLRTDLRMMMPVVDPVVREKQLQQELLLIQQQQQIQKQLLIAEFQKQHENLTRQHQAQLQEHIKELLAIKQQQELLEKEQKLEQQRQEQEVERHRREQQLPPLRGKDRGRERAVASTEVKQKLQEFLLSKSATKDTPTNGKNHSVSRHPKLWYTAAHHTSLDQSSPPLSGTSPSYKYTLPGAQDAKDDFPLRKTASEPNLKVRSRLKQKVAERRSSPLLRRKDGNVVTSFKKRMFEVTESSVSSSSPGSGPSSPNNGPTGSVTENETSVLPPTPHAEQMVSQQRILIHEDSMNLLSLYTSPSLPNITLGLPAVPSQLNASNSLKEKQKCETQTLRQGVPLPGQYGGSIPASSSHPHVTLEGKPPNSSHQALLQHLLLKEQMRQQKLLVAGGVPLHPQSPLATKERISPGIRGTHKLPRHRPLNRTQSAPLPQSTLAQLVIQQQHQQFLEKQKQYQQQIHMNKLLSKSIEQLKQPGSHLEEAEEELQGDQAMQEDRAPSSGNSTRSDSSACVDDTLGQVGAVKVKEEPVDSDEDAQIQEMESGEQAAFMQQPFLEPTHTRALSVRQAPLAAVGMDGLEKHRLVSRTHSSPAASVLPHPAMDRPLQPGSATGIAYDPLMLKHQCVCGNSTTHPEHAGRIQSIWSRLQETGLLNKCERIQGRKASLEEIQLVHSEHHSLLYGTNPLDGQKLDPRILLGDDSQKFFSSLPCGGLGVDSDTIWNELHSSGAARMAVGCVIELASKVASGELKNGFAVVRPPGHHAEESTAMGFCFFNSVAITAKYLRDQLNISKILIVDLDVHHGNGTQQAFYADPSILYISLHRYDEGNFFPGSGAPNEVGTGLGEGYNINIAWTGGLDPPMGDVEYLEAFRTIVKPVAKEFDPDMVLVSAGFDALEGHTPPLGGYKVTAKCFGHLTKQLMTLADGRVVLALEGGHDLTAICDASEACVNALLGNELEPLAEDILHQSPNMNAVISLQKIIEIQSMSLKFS
# Experimental: as §1
# HDAC10 = molecular target: T5, HDAC10 (Homo sapiens, UniProt Q969S8); assay: HDAC EMSA activity assay (Nanosyn); type: biochemical
# T5 construct: The full-length human HDACs were recombinantly expressed and purified from SF9 insect cells; host or cells: SF9 insect cells
# T5 sequence (Q969S8 whole entry): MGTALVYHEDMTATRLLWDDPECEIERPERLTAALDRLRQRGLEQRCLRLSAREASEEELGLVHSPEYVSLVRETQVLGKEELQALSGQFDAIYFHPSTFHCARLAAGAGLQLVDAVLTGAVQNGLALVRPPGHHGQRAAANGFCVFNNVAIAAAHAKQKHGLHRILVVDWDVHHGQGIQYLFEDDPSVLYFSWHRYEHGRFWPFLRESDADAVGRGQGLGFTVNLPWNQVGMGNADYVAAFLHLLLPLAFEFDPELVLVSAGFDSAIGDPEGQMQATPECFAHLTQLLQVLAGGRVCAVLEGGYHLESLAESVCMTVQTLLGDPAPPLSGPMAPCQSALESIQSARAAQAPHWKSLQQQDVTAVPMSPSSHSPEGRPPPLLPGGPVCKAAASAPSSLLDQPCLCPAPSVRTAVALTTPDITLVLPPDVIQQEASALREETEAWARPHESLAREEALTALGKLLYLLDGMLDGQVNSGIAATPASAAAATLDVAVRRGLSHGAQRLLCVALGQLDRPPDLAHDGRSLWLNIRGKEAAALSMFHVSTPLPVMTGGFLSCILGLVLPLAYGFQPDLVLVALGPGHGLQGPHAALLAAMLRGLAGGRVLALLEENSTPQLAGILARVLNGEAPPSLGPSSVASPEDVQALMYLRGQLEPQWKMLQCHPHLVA
# Experimental: as §1
# HDAC6 = molecular target: T6, HDAC6 (Homo sapiens, UniProt Q9UBN7); assay: HDAC EMSA activity assay (Nanosyn); type: biochemical; set-up: The full-length human HDACs were recombinantly expressed and purified from SF9 insect cells; host or cells: SF9 insect cells; conditions: EMSA (Nanosyn); read-out: IC50 HDAC6
# T6 sequence (Q9UBN7 1-1215): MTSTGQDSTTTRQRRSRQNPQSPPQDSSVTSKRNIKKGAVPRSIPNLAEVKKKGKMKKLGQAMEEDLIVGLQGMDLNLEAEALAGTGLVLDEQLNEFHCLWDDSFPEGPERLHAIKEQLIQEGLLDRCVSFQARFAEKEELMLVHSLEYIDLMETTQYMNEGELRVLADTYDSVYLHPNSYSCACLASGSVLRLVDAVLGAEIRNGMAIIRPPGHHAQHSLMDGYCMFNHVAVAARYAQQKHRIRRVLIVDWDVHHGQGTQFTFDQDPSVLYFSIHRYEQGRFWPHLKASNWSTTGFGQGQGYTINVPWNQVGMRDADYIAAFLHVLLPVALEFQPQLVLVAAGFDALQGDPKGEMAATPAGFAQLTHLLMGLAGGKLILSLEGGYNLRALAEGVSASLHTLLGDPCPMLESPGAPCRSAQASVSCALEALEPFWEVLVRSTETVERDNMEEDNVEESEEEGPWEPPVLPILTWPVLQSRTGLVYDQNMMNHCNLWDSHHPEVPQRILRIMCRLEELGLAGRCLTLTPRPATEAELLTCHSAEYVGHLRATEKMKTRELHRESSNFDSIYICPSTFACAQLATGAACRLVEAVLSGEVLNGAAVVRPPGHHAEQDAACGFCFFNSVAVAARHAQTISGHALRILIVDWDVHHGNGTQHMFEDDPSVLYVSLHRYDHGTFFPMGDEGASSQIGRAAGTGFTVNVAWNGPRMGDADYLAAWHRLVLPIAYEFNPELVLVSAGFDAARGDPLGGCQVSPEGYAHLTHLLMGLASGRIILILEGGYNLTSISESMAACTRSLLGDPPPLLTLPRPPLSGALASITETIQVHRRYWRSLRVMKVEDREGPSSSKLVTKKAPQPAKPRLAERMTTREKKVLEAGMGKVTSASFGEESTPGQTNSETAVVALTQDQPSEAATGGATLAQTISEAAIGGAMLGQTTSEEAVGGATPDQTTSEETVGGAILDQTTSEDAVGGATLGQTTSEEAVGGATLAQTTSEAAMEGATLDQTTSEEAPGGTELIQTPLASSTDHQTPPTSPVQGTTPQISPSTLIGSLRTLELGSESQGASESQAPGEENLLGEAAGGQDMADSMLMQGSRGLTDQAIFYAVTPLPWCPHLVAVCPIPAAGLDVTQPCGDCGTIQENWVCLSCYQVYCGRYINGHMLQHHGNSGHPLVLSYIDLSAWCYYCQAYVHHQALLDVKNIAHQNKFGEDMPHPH
# acetylated α-tubulin = assay: Western blot in MV4-11 cells; type: cell-based; conditions: MV4-11, 6 h, higher inhibitor concentrations
# Experimental: Briefly, MV4-11 cells were incubated with inhibitors prior to cell lysis with radioimmunoprecipitation assay (RIPA) buffer (20 mM Tris pH 7.4, 150 mM NaCl, 0.5% deoxycholate, 1% Triton X-100, and 0.1% sodium dodecyl sulfate (SDS)). Total protein content was determined through a BCA assay (ThermoFisher), resolved via a 4–20% polyacrylamide SDS gel, and transferred to a nitrocellulose membrane (Bio-Rad). The membranes were blocked with a 5% solution (skimmed milk powder in PBS-T). This was followed by incubation at 4 °C (overnight) with the following antibodies: acetylated α-tubulin mouse monoclonal (MABT868, EMD Millipore), acetylated histone H3 (Ac-Lys18, 07–354, Sigma), PARP-1 (ab227244, Abcam), apoptosis Western blot cocktail (136812, Abcam), cleaved PARP-1 (ab32561, Abcam), and HSC70 (sc-7298, Santa Cruz). Following overnight incubation, horseradish peroxidase (HRP)-conjugated goat anti-mouse IgG secondary antibody (7076, Cell Signaling) or HRP-linked anti-rabbit IgG secondary antibody (7074, Cell Signaling) was applied to the membrane in a 1:5000 dilution. The bands were visualized using clarity Western ECL substrate luminal/enhancer solution and peroxide solution. Western blotting analysis was carried out using Image lab software (Bio-Rad).[47],[50],[70]
# T1 sequence (Q13547 whole entry): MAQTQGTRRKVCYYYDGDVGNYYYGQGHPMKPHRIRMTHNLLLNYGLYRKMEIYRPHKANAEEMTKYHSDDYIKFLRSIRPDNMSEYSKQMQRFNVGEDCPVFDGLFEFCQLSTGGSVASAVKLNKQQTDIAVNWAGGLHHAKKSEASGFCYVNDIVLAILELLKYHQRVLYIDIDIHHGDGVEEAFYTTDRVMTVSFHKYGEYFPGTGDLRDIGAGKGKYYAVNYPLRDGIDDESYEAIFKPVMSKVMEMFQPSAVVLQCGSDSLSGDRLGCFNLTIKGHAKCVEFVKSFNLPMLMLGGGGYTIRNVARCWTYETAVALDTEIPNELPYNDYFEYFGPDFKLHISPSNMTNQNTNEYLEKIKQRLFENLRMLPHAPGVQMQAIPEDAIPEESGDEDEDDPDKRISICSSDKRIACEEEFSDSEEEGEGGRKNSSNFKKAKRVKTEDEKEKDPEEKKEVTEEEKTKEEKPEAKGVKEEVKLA
smiles,measurement,setting,value
"O=C(NO)c1ccc(CN(C2CC2)S(=O)(=O)c2cc(F)c(F)c(F)c2F)cc1 [Compound 14, 4-(((N-Cyclopropyl-2,3,4,5-tetrafluorophenyl)sulfonamido)methyl)-N-hydroxybenzamide]",IC50,HDAC1,> 1000 nM
same,IC50,HDAC5,> 1000 nM
same,IC50,HDAC7,> 1000 nM
same,IC50,HDAC9,> 1000 nM
same,IC50,HDAC10,> 1000 nM
same,IC50,HDAC6,8.5 nM
same,acetylated α-tubulin levels (Western blot),acetylated α-tubulin,comparable between citarinostat and KT-531
